Assay results from patent US20220033405A1, “PHARMACEUTICAL COMPOSITION FOR PREVENTING OR TREATING CANCER CONTAINING PLK1 INHIBITOR AS ACTIVE INGREDIENT” (NATIONAL CANCER CENTER, priority 2018, published 2022).

Columns and labels:
[1] = tested on: SNU449 human liver cancer cells; assay: Reactivity of M2 variants in SNU449; format: cell-based
Description: (§1) To examine the ability of the compound to inhibit the growth of the breast cancer cell line, the compounds was treated at each indicated μM concentration 1 and 3 days after cell attachment, and the control was treated with a 0.1% solvent (DMSO). After another two days, the cell lines that were attached to the culture plate and grew were rinsed with 1×PBS and treated with 4% paraformaldehyde at room temperature for 10 minutes to fix the cells. Then, after cells were rinsed twice with PBS, the fixed cells were treated with a 0.5% Triton X-100 solution and reacted at room temperature for 15 minutes, rinsed another three times with PBS, and then treated with a DAPI reagent at 0.5 μg/ml, and reacted at 37° C. for 10 minutes to stain the cell nuclei. After the cells were additionally rinsed once with PBS, cells stained with DAPI were photographed by Cytation 3, and the resulting images were analyzed with Gen5 software (Biotek, USA). Meanwhile, cells that grew in a floating manner without being attached to the culture plate were treated with a 4% paraformaldehyde solution, reacted at room temperature for 10 minutes to fix the cells, and then photographed in a bright field by Cytation3, and the resulting images were analyzed by Gen5 software (Biotek, USA).
(§2) To analyze the ability to inhibit the growth of liver cancer cell lines, 6.6×10^3 HepG2 cells per well, 1×10^3 cells of each of Hep3B, SNU-475, and SNU-449 per well, and 2×10^3 SNU-387 cells per well were aliquoted in a 96-well plate, cultured in the same manner as described above, treated with Compound 2 (M2), Compound 3 (M4), Compound 4 (M21), Compound 5 (M23), and Compound 6 (M25), and then the ability to inhibit the growth of cells was analyzed.

[2] = tested on: JIMT1 human breast cancer cells; assay: Cancer cell growth inhibition, M2 variants in JIMT1; format: cell-based
Description: as §1

[3] = tested on: HepG2 human liver cancer cells; assay: Reactivity of M2 variants in HepG2; format: cell-based
Description: as §1, §2

SNU-449 = assay: Cell cycle by flow cytometry, phospho-histone H3 (Ser10) staining; format: cell-based; details: M2 20, 40, 80 μM, BI2536 20 nM
Description: Flow cytometry equipment was used to confirm the effect on the cell cycle in the case of treatment with Compound 2 (M2). SNU-449, which is one of the liver cancer cell lines, were treated with Compound 2 (M2) at each of concentrations of 20, 40, and 80 μM after 1 day and 3 days, and were harvested after another 2 days.
Furthermore, it was intended to more specifically stain a cell population that stopped in the metaphase of cell division using a phospho-histone H3 (Ser10) antibody capable of specifically staining only the cells that stopped in the metaphase of cell division. As a positive control, cells were treated with BI2536 known as a PLK1 kinase inhibitor at 20 nM and used to observe cells in the metaphase of cell division and an increase in the G2/M phase.

[4] = tested on: HepG2 orthotopic xenograft; assay: Liver cancer orthotopic xenograft model (HepG2), 19 injections; format: in vivo, BalB/c nude mice; details: M2 9.1 mg/kg, BI2536 1 mg/kg, 19 injections
Description: 5×10^6 HepG2 cells, which are a hepatocellular carcinoma cell line, were injected into the back skin of BalB/c nude mice, and when a sufficient cancer tissue was formed about 3 weeks later, the tissue was removed, uniformly cut into 1 mm^3, and transplanted into the right median lobe of the liver by excising the abdomen within 1 cm.
The doses of 9.1 mg/kg of M2 and 1 mg/kg of BI2536 were selected based on the present inventor's previous in vitro experiments on HCC cells. Administration began 7 days after cell injection, and an equivalent amount of DMSO for the highest concentration of drug was used as a solvent control for each experiment. Each drug was injected a total of 19 injections based on 5 times/week.

HepG2 cells = assay: Cell viability after treatment (Hoechst 33342); format: cell-based; details: HepG2, various concentrations, two treatments 48 hours apart
Description: HepG2 cells, a hepatocellular carcinoma cell line, were plated with 4 to 6 replications at each hit compound concentration in a 96-well microtiter plate supplemented with a culture medium. The hit compound dissolved in DMSO was added the next day according to the design of experiments, and the number of seeded cells was determined by the cell density reaching 80% on the final day of the protocol treated as a cell control. After 24 hours of cell seeding, cells were treated with hit compounds (M2 and BI2536) at various concentrations, and 48 hours after primary treatment, the medium was aspirated and then secondary treatment was performed. After 48 hours, cell nuclei were visualized by 2.5 μM Hoechst 33342 staining at 37° C. for 30 minutes, then the medium was aspirated and washed with a fresh medium. The plate was read using Cytation™ 3 (BioTek, USA), the cell viability was analyzed, and the results were presented as a relative percentage of viable cells after treatment with the hit compound compared to the control treatment.

PLK1 = PLK1 position in the cell (r-tubulin, PLK1, DAPI staining); format: cell-based
HepG2 cell = assay: Apoptosis by annexin V-FITC / PI flow cytometry; format: cell-based; details: HepG2, 3 days; M2 20 or 100 μM; BI2536 20 or 100 nM
Description: To analyze the pattern of apoptosis by exposure to M2, HepG2 cell, a hepatocellular carcinoma cell line, were treated with 20 or 100 μM M2 and 20 or 100 nM BI2536 for 3 days. The apoptosis was detected by annexin V-fluorescein isothiocyanate (annexin V-FITC) and propidium iodide (PI) staining of necrotic and apoptosis cells. First, cells were harvested and washed once with PBS. The cells were then resuspended in a 100 μl binding buffer containing 4 μl of Annexin V (BD, 51-65874X) and PI (BD, 51-66211E). The cells were stained at 37° C. for 15 minutes in the dark and then analyzed using FACSan (BD, San Jose, Calif.). Data was analyzed using CELLQuest software (BD).

MDA-MB-468 cells = assay: Cancer cell growth inhibition (DAPI nuclei count), breast cancer line; format: cell-based; details: treated 1 and 3 days after attachment
Description: For this purpose, experiments were performed using liver cancer, breast cancer, hematologic cancer, cervical cancer, and prostate cancer cell lines, a murine liver cancer cell line HEPA 1-6 and a breast cancer cell line MDA-MB-468 were cultured in a DMEM medium supplemented with 10% fetal bovine serum (FBS) and 1% penicillin/streptomycin, the other cell lines were cultured in a RPMI1640 medium supplemented with the same additives, and the cell lines were used in the experiment.
To examine the ability of the compound to inhibit the growth of the breast cancer cell line, the compounds was treated at each indicated μM concentration 1 and 3 days after cell attachment, and the control was treated with a 0.1% solvent (DMSO). […] After the cells were additionally rinsed once with PBS, cells stained with DAPI were photographed by Cytation 3, and the resulting images were analyzed with Gen5 software (Biotek, USA). Meanwhile, cells that grew in a floating manner without being attached to the culture plate were treated with a 4% paraformaldehyde solution, reacted at room temperature for 10 minutes to fix the cells, and then photographed in a bright field by Cytation3, and the resulting images were analyzed by Gen5 software (Biotek, USA). […]

[5] = molecular target: T1, PBD domain of PLK1 (PLK1-PBD protein) (Homo sapiens, UniProt P53350); assay: Compound screening by fluorescence polarization (FP) competition assay; format: binding; details: FITC-labeled 1010pT peptide + PLK1-PBD; about 300 with no compound added
T1 construct: a 4 μM PLK1-PBD protein
T1 sequence (P53350 367-603 limits assumed): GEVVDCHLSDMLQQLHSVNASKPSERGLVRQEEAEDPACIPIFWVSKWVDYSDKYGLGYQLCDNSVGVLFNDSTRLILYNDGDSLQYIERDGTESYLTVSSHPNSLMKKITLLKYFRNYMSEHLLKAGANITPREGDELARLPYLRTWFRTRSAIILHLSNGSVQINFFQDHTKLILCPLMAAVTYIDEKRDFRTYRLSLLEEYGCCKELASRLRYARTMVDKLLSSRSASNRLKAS
Description: For this purpose, a fluorescence polarization competition assay was performed by mixing a conjugate of a PBD site of PLK1 purified in a solution and a peptide (FITC-labeled 1010pT (GVLSpTLI-NH2)) to which FITC fluorescence was bound with a low molecular weight compound to be screened.
More specifically, after a reaction was performed at room temperature for 30 minutes by preparing a 4 μM PLK1-PBD protein, a 10 nM peptide (FITC-labeled 1010pT (GVLSpTLI-NH2)), and a 20 μl candidate compound at each concentration and putting the respective components into a black 96-well plate for mixing, fluorescence polarization (mp) values were measured using Infinite F200 Pro (TECAN Group Ltd, Switzerland). An average value was derived by performing this experiment three times by the same method, and the excitation wavelength and the emission wavelength were set at 485 nm and 535 nm, respectively.

[6] = molecular target: T2, PBD of PLK1 (GST-tagged target protein) (Homo sapiens, UniProt P53350); assay: IC50 measurement by FP assay; format: binding; details: FITC-labeled 1010pT peptide
T2 construct: made in house
T2 sequence (P53350 367-603 limits assumed): as above
Description: The IC50 of the compound was intended to be analyzed by performing the FP assay shown in Example 1 on the compound and the hit compound discovered by the primary and secondary compound screening and various derivatives thereof. For this purpose, a target protein to which GST-tag was bound was isolated using a GST resin, and 15 mg/ml of the pure target protein to which GST-tag was bound was obtained by finally performing gel filtration. The target protein was diluted with a reaction buffer and prepared at each of concentrations of 12 uM, 3 uM, and 1.5 uM, and an FITC-bound peptide (FITC-labeled 1010pT (GVLS-pT-LI-NH2)) stored in a brown tube was diluted with a reaction buffer and prepared at a concentration of 30 nM. Further, the compound at a concentration of 100 mM was diluted with a reaction buffer and prepared at each of 160.0 uM, 80.0 uM, 40.0 uM, 20.0 uM, 10.0 uM, 5.0 uM, 2.5 uM, 1.25 uM, 0.625 uM, 0.3125 uM, 0.15625 uM, and 0.0 uM. […] When the reaction was completed, the fluorescence polarization value was measured using Infinite F200 Pro (TECAN Group Ltd, Switzerland) after setting the excitation wavelength and the emission wavelength to 485 nm and 535 nm, respectively, and setting the G-Factor to 1.077. […] Binding curves were analyzed using Graphpad Prism (GraphPad Software, San Diego, Calif., USA).

Cc1cc2nc3c(=O)[nH]c(=O)nc-3n(CCC#N)c2cc1C [Compound 10, 3-{7,8-dimethyl-2,4-dioxo-2H,3H,4H,10H-benzo[g]pteridin-10-yl}propanenitrile]
number of cancer cells [1]: a relatively remarkable cancer cell reduction effect did not appear

Cc1cccc(OCCn2c3nc(=O)[nH]c(=O)c-3nc3cc(C(F)(F)F)ccc32)c1 [Compound 11, 10-[2-(3-methylphenoxy)ethyl]-7-(trifluoromethyl)-2H,3H,4H,10H-benzo[g]pteridine-2,4-dione]
number of cancer cells [1]: a relatively remarkable cancer cell reduction effect did not appear

Cc1cc2nc3c(=O)[nH]c(=O)nc-3n(C)c2cc1C=O [Compound 8, 7,10-dimethyl-2,4-dioxo-2H,3H,4H,10H-benzo[g]pteridine-8-carbaldehyde]
number of cancer cells [1]: the number of cancer cells was remarkably reduced in a dose-dependent manner
number of cancer cells [2]: remarkably reduced the number of cancer cells in a dose-dependent manner

Cc1cc2nc3c(=O)[nH]c(=O)nc-3n(C[C@H](O)[C@H](O)[C@H](O)CO)c2cc1C [Compound 12, 7,8-Dimethyl-10-[(2S,3S,4R)-2,3,4,5-tetrahydroxypentyl]benzo[g]pteridine-2,4-dione]
number of cancer cells [1]: a relatively remarkable cancer cell reduction effect did not appear
areas of liver cancer cells [3]: relatively low reactivity appeared

CC[C@@H]1C(=O)N(C)c2cnc(Nc3ccc(C(=O)NC4CCN(C)CC4)cc3OC)nc2N1C1CCCC1 [BI2536, reference compound]
proportion of polyploid cells (SNU-449): remarkably increased
proportion of phospho-histone H3-positive cells (SNU-449; compared to CT): increase in the proportion
progression of the HCC xenograft calculated by the growth inhibition index [4]: suppressed the progression of the HCC xenograft
growth of tumor cells (macroscopic morphology, MRI) ([4]; 5 times/week): the growth of tumor cells was suppressed
cell viability (HepG2 cells): the relatively less the cell viability became
chromosome segregation (PLK1): abnormal chromosome segregation was observed
position of PLK1 (PLK1; middle stage of cell division): did not seem to make a relatively large difference
r-tubulin located in the centrosome (staining / position) (PLK1; middle stage of cell division): did not seem to make a relatively large difference
apoptosis cells (HepG2 cell): apoptosis cells were increased
apoptosis with increasing dose (HepG2 cell): apoptosis was increased in a dose-dependent manner

O=c1nc2[nH]c3cc(Cl)ccc3nc-2c(=O)[nH]1 [Compound 3, 8-chloro-1H,2H,3H,4H-benzo[g]pteridine-2,4-dione]
number of cells (MDA-MB-468 cells): the number of cells was remarkably reduced in proportion to the treatment concentration

Cc1cc2nc3c(=O)[nH]c(=O)nc-3n(C)c2cc1C [Compound 7, 7,8,10-trimethyl-2H,3H,4H,10H-benzo[g]pteridine-2,4-dione]
number of cancer cells [1]: the number of cancer cells was remarkably reduced in a dose-dependent manner
number of cancer cells [2]: remarkably reduced the number of cancer cells in a dose-dependent manner
areas of liver cancer cells [3]: remarkably reduced in a dose-dependent manner

O=C(O)c1ccc2[nH]c3nc(=O)[nH]c(=O)c-3nc2c1 [Compound 1, 2,4-Dioxo-1,2,3,4-tetrahydrobenzo[g]pteridine-7-carboxylic acid]
fluorescence polarization value [5]: 180 mp
IC50 [6]: ~25 µM
